This assay deals with rats. Put plainly: Acetic acid writhing model in rats. The class given is in vivo, rat. To be noted: doses of 10 to 30 mg/kg, intraperitoneal route. The method, then:
The Acetic Acid Writhing Model is associated with visceral pain (abdominal pain, such as stomach pain, and pain caused by, for example, bile duct congestion and kidney stones). A writhing test assesses acute peritoneovisceral pain.
After acclimation of 2-3 days, a test compound, positive control or vehicle control was administered by intraperitoneal injection (i.p.) or by oral gavage 15-30 minutes prior to administration of acetic acid. The time of administration of test compound was recorded. For mice: Method A: 0.6% Acetic acid solution in saline was injected i.p. in a volume of 10 ml/kg; Method B: 1.2% Acetic acid solution in saline was injected i.p. in a volume of 5 ml/kg. For rats: 4% acetic acid in saline was injected i.p in a volume of 2 ml/kg at T=0 minutes. Each animal was placed in a clear plastic cage. At T=5 minutes, the number of writhing movements was counted over a 45 minute period. Alternatively, the writhing movements were counted over a 5-minute period and repeated every 5 minutes, starting at T=5 minutes over a 45-minute period.
For each compound tested, the individual score was obtained by calculating the accumulated writhing movements for the time period studied. […]
(In general: An intraperitoneal irritant provokes the stretching counted in writhing tests.)

As for `O=C(O)CNC(=O)c1cc(-c2cc(Cl)ccc2Oc2cc(F)c(S(=O)(=O)Nc3ncns3)cc2Cl)ccn1` [Compound 2, 2-(4-(2-(4-(N-(1,2,4-thiadiazol-5-yl)sulfamoyl)-2-chloro-5-fluorophenoxy)-5-chlorophenyl)picolinamido)acetic acid], the “reduction in pain (writhing) relative to vehicle control” value is 48-58%.

The values are drawn from patent publication US9458118B2, “Sodium channel modulators for the treatment of pain and diabetes” (CHROMOCELL CORPORATION, priority 2013, dated 2016).
